Reference: patent US11014911B2, “CDK2 inhibitors” (Pfizer Inc., priority 2019, dated 2021)

Target: CDK2/Cyclin E1 full length (Homo sapiens (Human), UniProt P24941)
Assay: CDK2/Cyclin E1 full length mobility shift assay
Format: biochemical

Row | Structure (SMILES) | Ki
1 | Cc1cc(CC(=O)Nc2cc([C@H]3CC[C@@H](OC(=O)NC(C)C)C3)[nH]n2)no1 [Example 269, (1R,3S)-3-(3-{[(5-methyl-1,2-oxazol-3-yl)acetyl]amino}-1H-pyrazol-5-yl)cyclopentyl propan-2-ylcarbamate] | 1.68 nM
2 | C[C@H]1CCN1C(=O)O[C@@H]1CC[C@H](c2cc(NC(=O)c3cncn3C)n[nH]2)C1 [Example 585, (1R,3S)-3-(3-{[(1-methyl-1H-imidazol-5-yl)carbonyl]amino}-1H-pyrazol-5-yl)cyclopentyl (2S)-2-methylazetidine-1-carboxylate] | 2.57 nM
3 | CC1(NC(=O)O[C@@H]2CC[C@H](c3cc(NC(=O)Cc4cscn4)n[nH]3)C2)CC1 [Example 423, (1R,3S)-3-{3-[(1,3-thiazol-4-ylacetyl)amino]-1H-pyrazol-5-yl}cyclopentyl (1-methylcyclopropyl)carbamate] | 0.6 nM
4 | Cc1nnc(CC(=O)Nc2cc([C@H]3CC[C@@H](OC(=O)NC4(C)CCC4)C3)[nH]n2)s1 [Example 18, (1R,3S)-3-(3-{[(5-methyl-1,3,4-thiadiazol-2-yl)acetyl]amino}-1H-pyrazol-5-yl)cyclopentyl (1-methylcyclobutyl)carbamate] | 0.17 nM
5 | COc1cnc(CC(=O)Nc2cc([C@H]3CC[C@@H](OC(=O)N[C@@H](C)C4CC4)C3)[nH]n2)cn1 [Example 106] | 0.76 nM
6 | Cn1ccc(CC(=O)Nc2cc([C@H]3CC[C@@H](OC(=O)NC4(C)CCOCC4)C3)[nH]n2)n1 [Example 507, (1R,3S)-3-(3-{[(1-methyl-1H-pyrazol-3-yl)acetyl]amino}-1H-pyrazol-5-yl)cyclopentyl (4-methyltetrahydro-2H-pyran-4-yl)carbamate] | 3.69 nM
7 | CC[C@H](C)NC(=O)O[C@@H]1CC[C@H](c2cc(NC(=O)Cc3cnn(C)c3C(F)(F)F)n[nH]2)C1 [Example 365, (1R,3S)-3-[3-({[1-methyl-5-(trifluoromethyl)-1H-pyrazol-4-yl]acetyl}amino)-1H-pyrazol-5-yl]cyclopentyl (2S)-butan-2-ylcarbamate] | 2.08 nM
8 | CC(C)NC(=O)O[C@@H]1CC[C@H](c2cc(NC(=O)Cc3ccc(C(F)(F)F)cn3)n[nH]2)C1 [Example 286, (1R,3S)-3-[3-({[5-(trifluoromethyl)pyridin-2-yl]acetyl}amino)-1H-pyrazol-5-yl]cyclopentyl propan-2-ylcarbamate] | 4.14 nM
9 | COc1ccc(S(C)(=O)=O)c(CC(=O)Nc2cc([C@H]3CC[C@@H](OC(=O)NC(C)C)C3)[nH]n2)c1 [Example 288, (1R,3S)-3-[3-({[5-methoxy-2-(methylsulfonyl)phenyl]acetyl}amino)-1H-pyrazol-5-yl]cyclopentyl propan-2-ylcarbamate] | 0.39 nM
10 | COCc1cc(C(=O)Nc2cc([C@H]3CC[C@@H](OC(=O)NC4(CC(F)(F)F)CC4)C3)[nH]n2)n(C)n1 [Example 457, (1R,3S)-3-[3-({[3-(methoxymethyl)-1-methyl-1H-pyrazol-5-yl]carbonyl}amino)-1H-pyrazol-5-yl]cyclopentyl [1-(2,2,2-trifluoroethyl)cyclopropyl] carbamate] | 0.38 nM
11 | COc1cc(C(=O)Nc2cc([C@H]3CC[C@@H](OC(=O)N[C@H](C)CC(F)(F)F)C3)[nH]n2)n(C)n1 [Example 402, (1R,3S)-3-(3-{[(3-methoxy-1-methyl-1H-pyrazol-5-yl)carbonyl]amino}-1H-pyrazol-5-yl)cyclopentyl [(2R)-4,4,4-trifluorobutan-2-yl]carbamate] | 1.54 nM
12 | COc1cnc(CC(=O)Nc2cc([C@H]3CC[C@@H](OC(=O)NC(C)C)C3)[nH]n2)cn1 [Example 277, (1R,3S)-3-(3-{[(5-methoxypyrazin-2-yl)acetyl]amino}-1H-pyrazol-5-yl)cyclopentyl propan-2-ylcarbamate] | 0.98 nM
13 | Cc1cnc(CC(=O)Nc2cc([C@H]3CC[C@@H](OC(=O)NC(C)C)C3)[nH]n2)s1 [Example 273, (1R,3S)-3-(3-{[(5-methyl-1,3-thiazol-2-yl)acetyl]amino}-1H-pyrazol-5-yl)cyclopentyl propan-2-ylcarbamate] | 3.08 nM
14 | Cc1ccc(F)c(CC(=O)Nc2cc([C@H]3CC[C@@H](OC(=O)NC4(C)CC4)C3)[nH]n2)n1 [Example 435, (1R,3S)-3-(3-{[(3-fluoro-6-methylpyridin-2-yl)acetyl]amino}-1H-pyrazol-5-yl)cyclopentyl (1-methylcyclopropyl)carbamate] | 1.49 nM
15 | CC1(NC(=O)O[C@@H]2CC[C@H](c3cc(NC(=O)Cc4ccc(F)cn4)n[nH]3)C2)CC1 [Example 430, (1R,3S)-3-(3-{[(5-fluoropyridin-2-yl)acetyl]amino}-1H-pyrazol-5-yl)cyclopentyl (1-methylcyclopropyl)carbamate] | 1.14 nM
16 | CCC(CO)CNC(=O)O[C@@H]1CC[C@H](c2cc(NC(=O)Cc3cnc(C)o3)n[nH]2)C1 (single isomer, unassigned) [Example 526] | 3.95 nM
17 | Cc1nc(CC(=O)Nc2cc([C@H]3CC[C@@H](OC(=O)NC(C)(C)C)C3)[nH]n2)ccc1Cl [Example 312, (1R,3S)-3-(3-{[(5-chloro-6-methylpyridin-2-yl)acetyl]amino}-1H-pyrazol-5-yl)cyclopentyl tert-butylcarbamate] | 0.43 nM
18 | CCC(O)CNC(=O)O[C@@H]1CC[C@H](c2cc(NC(=O)Cc3cc(F)cc(F)c3)n[nH]2)C1 (single isomer, unassigned) [Example 542] | 2.41 nM
19 | Cc1cnc(CC(=O)Nc2cc([C@H]3CC[C@@H](OC(=O)NCCC(F)(F)F)C3)[nH]n2)s1 [Example 221, (1R,3S)-3-(3-{[(5-methyl-1,3-thiazol-2-yl)acetyl]amino}-1H-pyrazol-5-yl)cyclopentyl (3,3,3-trifluoropropyl)carbamate] | 1.73 nM

Row | Structure (SMILES) | Ki
20 | Cc1ccnc(CC(=O)Nc2cc([C@H]3CC[C@@H](OC(=O)NC4(C)CC4)C3)[nH]n2)c1 [Example 425, (1R,3S)-3-(3-{[(4-methylpyridin-2-yl)acetyl]amino}-1H-pyrazol-5-yl)cyclopentyl (1-methylcyclopropyl)carbamate] | 1.05 nM
21 | CC1(NC(=O)O[C@@H]2CC[C@H](c3cc(NC(=O)Cc4ccccn4)n[nH]3)C2)CC1 [Example 420, (1R,3S)-3-{3-[(pyridin-2-ylacetyl)amino]-1H-pyrazol-5-yl}cyclopentyl (1-methylcyclopropyl)carbamate] | 0.54 nM
22 | CCCNC(=O)O[C@H]1CC[C@@H](c2cc(NC(=O)Cc3cn4ccccc4n3)n[nH]2)C1 [Example 191, (1S,3R)-3-{3-[(imidazo[1,2-a]pyridin-2-ylacetyl)amino]-1H-pyrazol-5-yl}cyclopentyl propylcarbamate] | 3.33 nM
23 | COc1cnc(CC(=O)Nc2cc([C@H]3CC[C@@H](OC(=O)NC4(CC(F)(F)F)CC4)C3)[nH]n2)cn1 [Example 456, (1R,3S)-3-(3-{[(5-methoxypyrazin-2-yl)acetyl]amino}-1H-pyrazol-5-yl)cyclopentyl [1-2,2,2-trifluoroethyl)cyclopropyl] carbamate] | 0.38 nM
24 | O=C(Cc1cc(F)cc(F)c1)Nc1cc([C@@H]2CC[C@H](OC(=O)NCC3CCCOC3)C2)[nH]n1 (single isomer, unassigned) [Example 516] | 3.24 nM
25 | CCNC(=O)O[C@@H]1CC[C@H](c2cc(NC(=O)Cc3cccc4ncsc34)n[nH]2)C1 [Example 235, (1R,3S)-3-{3-[(1,3-benzothiazol-7-ylacetyl)amino]-1H-pyrazol-5-yl}cyclopentyl ethylcarbamate] | 2.33 nM
26 | Cc1cnc(CC(=O)Nc2cc([C@H]3CC[C@@H](OC(=O)N(C)C(C)C)C3)[nH]n2)o1 [Example 290, (1R,3S)-3-(3-{[(5-methyl-1,3-oxazol-2-yl)acetyl]amino}-1H-pyrazol-5-yl)cyclopentyl methyl(propan-2-yl)carbamate] | 1.45 nM
27 | CCCNC(=O)O[C@@H]1CC[C@H](c2cc(NC(=O)Cc3ccccc3S(C)(=N)=O)n[nH]2)C1 (single isomer, unassigned) [Example 201] | 1.91 nM
28 | CC[C@H](C)NC(=O)O[C@@H]1CC[C@H](c2cc(NC(=O)Cc3cccnc3OC)n[nH]2)C1 [Example 345, (1R,3S)-3-(3-{[(2-methoxypyridin-3-yl)acetyl]amino}-1H-pyrazol-5-yl)cyclopentyl (2S)-butan-2-ylcarbamate] | 2.66 nM
29 | COc1cc(CC(=O)Nc2cc([C@H]3CC[C@@H](OC(=O)NCC(F)(F)F)C3)[nH]n2)ccn1 [Example 255, (1R,3S)-3-(3-{[(2-methoxypyridin-4-yl)acetyl]amino}-1H-pyrazol-5-yl)cyclopentyl (2,2,2-trifluoroethyl)carbamate] | 1.69 nM
30 | CC1(NC(=O)O[C@@H]2CC[C@H](c3cc(NC(=O)CC4COc5ccccc54)n[nH]3)C2)CCOC1 (stereo partly drawn) [Example 491, (1R,3S)-3-(3-{[(3ξ)-2,3-dihydro-1-benzofuran-3-ylacetyl]amino}-1H-pyrazol-5-yl)cyclopentyl [(3ξ)-3-methyltetrahydrofuran-3-yl]carbamate] | 3.87 nM
31 | Cc1coc(CC(=O)Nc2cc([C@H]3CC[C@@H](OC(=O)N4CCC[C@@H]4C)C3)[nH]n2)n1 [Example 636, (1R,3S)-3-(3-{[(4-methyl-1,3-oxazol-2-yl)acetyl]amino}-1H-pyrazol-5-yl)cyclopentyl (2S)-2-methylpyrrolidine-1-carboxylate] | 0.83 nM
32 | Cc1ncc(CC(=O)Nc2cc([C@H]3CC[C@@H](OC(=O)N4C[C@@H](C#N)[C@@H]4C)C3)[nH]n2)s1 (single isomer, unassigned) [Example 159] | 3.63 nM
33 | CCC1CCN1C(=O)O[C@@H]1CC[C@H](c2cc(NC(=O)Cc3ncc(C)o3)n[nH]2)C1 (single isomer, unassigned) [Example 600] | 2.12 nM
34 | COc1cc(C(=O)Nc2cc([C@H]3CC[C@@H](OC(=O)N[C@@H](C)CC(F)(F)F)C3)[nH]n2)n(C)n1 [Example 94] | 0.15 nM
35 | COc1cc(CC(=O)Nc2cc([C@H]3CC[C@@H](OC(=O)NC(C)CC(F)F)C3)[nH]n2)ccn1 (single isomer, unassigned) [Example 99] | 0.09 nM
36 | CC(C)(C)NC(=O)O[C@@H]1CC[C@H](c2cc(NC(=O)Cc3cc(Cl)ccn3)n[nH]2)C1 [Example 115] | 0.23 nM
37 | C[C@H]1CCCN1C(=O)O[C@@H]1CC[C@H](c2cc(NC(=O)Cc3ccccn3)n[nH]2)C1 [Example 630, (1R,3S)-3-{3-[(pyridin-2-ylacetyl)amino]-1H-pyrazol-5-yl}cyclopentyl (2S)-2-methylpyrrolidine-1-carboxylate] | 1.43 nM
